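96-well plates; 48 h exposure; 5 concentrations. Endpoints by linear interpolation between flanking doses. Not reached: highest tested concentration assigned. At the GI50, growth is halved. TGI: concentration producing complete growth inhibition.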
Legend:
Assay in all cases: inhibition of tumour cell growth, NCI panel, 48 h
[1] = test system: SW-620 colon
[2] = test system: NCI-H226 lung
[3] = test system: UACC-257 melanoma
[4] = test system: SK-MEL-2 melanoma
[5] = test system: KM12 colon
[6] = test system: MDA-MB-435
[7] = test system: HOP-92 NSCLC
[8] = test system: 786-0 renal
[9] = test system: SF-539 CNS
[10] = test system: LOX IMVI melanoma
[11] = test system: IGROV1 ovarian
[12] = test system: SF-268 CNS
[13] = test system: MDA-MB-231 breast
[14] = test system: HCT-116 colon
[15] = test system: RPMI-8226 leukemia
[16] = test system: MALME-3M melanoma
[17] = test system: NCI-H522 lung
[18] = test system: PC-3 prostate
[19] = test system: ACHN renal
[20] = test system: SR leukemia
[21] = test system: K-562 leukemia
[22] = test system: SK-MEL-28 melanoma
[23] = test system: HL-60(TB) leukemia
[24] = test system: SK-OV-3 ovarian
[25] = test system: EKVX NSCLC
[26] = test system: HCT-15 colon
[27] = test system: RXF 393 renal
[28] = test system: COLO 205 colon
[29] = test system: M14 melanoma
[30] = test system: U251 CNS
[31] = test system: A549 NSCLC
[32] = test system: NCI/ADR-RES ovarian
[33] = test system: SNB-75 CNS
[34] = test system: SF-295 CNS
[35] = test system: HS 578T breast
[36] = test system: SK-MEL-5 melanoma
[37] = test system: TK-10 renal
[38] = test system: MOLT-4 leukemia
[39] = test system: NCI-H23 lung
[40] = test system: UO-31 renal
[41] = test system: CAKI-1 renal
[42] = test system: NCI-H460 lung
[43] = test system: MCF7 breast
[44] = test system: HCC-2998 colon
[45] = test system: SN12C renal
[46] = test system: OVCAR-5 ovarian
[47] = test system: SNB-19 CNS
[48] = test system: UACC-62 melanoma
[49] = test system: OVCAR-3 ovarian
[50] = test system: DU-145 prostate
[51] = test system: CCRF-CEM leukemia
[52] = test system: OVCAR-8 ovarian
[53] = test system: A498 renal
[54] = test system: BT-549 breast
[55] = test system: HOP-62 NSCLC
[56] = test system: HT29 colon
[57] = test system: T-47D breast

N#Cc1nn(-c2cc(=O)[nH]c3ccc(Br)cc23)c(N)c1C#N
GI50 [1]: > 100 µM
TGI [1]: > 100 µM
GI50 [2]: > 100 µM
TGI [2]: > 100 µM
GI50 [3]: > 100 µM
TGI [3]: > 100 µM
GI50 [4]: > 100 µM
TGI [4]: > 100 µM
GI50 [5]: > 100 µM
TGI [5]: > 100 µM
GI50 [6]: > 100 µM
TGI [6]: > 100 µM
GI50 [7]: > 100 µM
TGI [7]: > 100 µM
GI50 [8]: > 100 µM
TGI [8]: > 100 µM
GI50 [9]: 51.7 µM
TGI [9]: > 100 µM
GI50 [10]: > 100 µM
TGI [10]: > 100 µM
GI50 [11]: 37.9 µM
TGI [11]: > 100 µM
GI50 [12]: 67 µM
TGI [12]: > 100 µM
GI50 [13]: > 100 µM
TGI [13]: > 100 µM
GI50 [14]: > 100 µM
TGI [14]: > 100 µM
GI50 [15]: > 100 µM
TGI [15]: > 100 µM
GI50 [16]: > 100 µM
TGI [16]: > 100 µM
GI50 [17]: 22.7 µM
TGI [17]: 86.4 µM
GI50 [18]: > 100 µM
TGI [18]: > 100 µM
GI50 [19]: > 100 µM
TGI [19]: > 100 µM
GI50 [20]: 74.2 µM
TGI [20]: > 100 µM
GI50 [21]: > 100 µM
TGI [21]: > 100 µM
GI50 [22]: > 100 µM
TGI [22]: > 100 µM
GI50 [23]: > 100 µM
TGI [23]: > 100 µM
GI50 [24]: > 100 µM
TGI [24]: > 100 µM
GI50 [25]: 4.6 µM
TGI [25]: > 100 µM
GI50 [26]: > 100 µM
TGI [26]: > 100 µM
GI50 [27]: > 100 µM
TGI [27]: > 100 µM
GI50 [28]: > 100 µM
TGI [28]: > 100 µM
GI50 [29]: > 100 µM
TGI [29]: > 100 µM
GI50 [30]: 88.1 µM
TGI [30]: > 100 µM
GI50 [31]: > 100 µM
TGI [31]: > 100 µM
GI50 [32]: > 100 µM
TGI [32]: > 100 µM
GI50 [33]: 57.1 µM
TGI [33]: > 100 µM
GI50 [34]: > 100 µM
TGI [34]: > 100 µM
GI50 [35]: 64.9 µM
TGI [35]: > 100 µM
GI50 [36]: > 100 µM
TGI [36]: > 100 µM
GI50 [37]: > 100 µM
TGI [37]: > 100 µM
GI50 [38]: > 100 µM
TGI [38]: > 100 µM
GI50 [39]: 51.5 µM
TGI [39]: > 100 µM
GI50 [40]: > 100 µM
TGI [40]: > 100 µM
GI50 [41]: > 100 µM
TGI [41]: > 100 µM
GI50 [42]: > 100 µM
TGI [42]: > 100 µM
GI50 [43]: 64.1 µM
TGI [43]: > 100 µM
GI50 [44]: > 100 µM
TGI [44]: > 100 µM
GI50 [45]: > 100 µM
TGI [45]: > 100 µM
GI50 [46]: > 100 µM
TGI [46]: > 100 µM
GI50 [47]: > 100 µM
TGI [47]: > 100 µM
GI50 [48]: > 100 µM
TGI [48]: > 100 µM
GI50 [49]: > 100 µM
TGI [49]: > 100 µM
GI50 [50]: > 100 µM
TGI [50]: > 100 µM
GI50 [51]: > 100 µM
TGI [51]: > 100 µM
GI50 [52]: > 100 µM
TGI [52]: > 100 µM
GI50 [53]: > 100 µM
TGI [53]: > 100 µM
GI50 [54]: > 100 µM
TGI [54]: > 100 µM
GI50 [55]: > 100 µM
TGI [55]: > 100 µM
GI50 [56]: > 100 µM
TGI [56]: > 100 µM
GI50 [57]: 6.46 µM
TGI [57]: > 100 µM

— PubChem BioAssay (NCI)
